Test results: ChEMBL document CHEMBL3044556, “Managing weeds with drip-applied herbicides in tomato” (2008)

Experiments:
Format in all cases: functional
Cyperus [1] = experiment: Pre-emergence herbicidal activity against Cyperus in tomato field assessed as number of weeds at 4.56 kg/ha applied through drip lines/backpack-spray on week 3 to 4 before transplanting measured 7 weeks after treatment (reference value: 3 plants/m2)
Poaceae [2] = experiment: Pre-emergence herbicidal activity against Poaceae (grass family) in tomato field assessed as number of weeds at 4.56 kg/ha applied through drip lines/backpack-spray on week 3 to 4 before transplanting measured 7 weeks after treatment (reference value: 6 plants/m2)
Eleusine indica [3] = experiment: Pre-emergence herbicidal activity against Eleusine indica in tomato field assessed as number of weeds at 4.56 kg/ha applied through drip lines/backpack-spray on week 3 to 4 before transplanting measured 12 weeks after treatment (reference value: 9 plants/m2)
Digitaria [4] = experiment: Pre-emergence herbicidal activity against Digitaria spp. in tomato field assessed as number of weeds at 4.56 kg/ha applied through drip lines/backpack-spray on week 3 to 4 before transplanting measured 12 weeks after treatment (reference value: 9 plants/m2)
Echinochloa colona [5] = experiment: Pre-emergence herbicidal activity against Echinochloa colona in tomato field assessed as number of weeds at 4.56 kg/ha applied through drip lines/backpack-spray on week 3 to 4 before transplanting measured 12 weeks after treatment (reference value: 9 plants/m2)
Portulaca oleracea [6] = experiment: Pre-emergence herbicidal activity against Portulaca oleracea in tomato field assessed as number of weeds at 4.56 kg/ha applied through drip lines/backpack-spray on week 3 to 4 before transplanting measured 7 weeks after treatment (reference value: 9 plants/m2); conditions: pooled result: one value given for 8 cell lines, strains, targets or settings
Amaranthus dubius [7] = experiment: Pre-emergence herbicidal activity against Amaranthus dubius in tomato field assessed as number of weeds at 4.56 kg/ha applied through drip lines/backpack-spray on week 3 to 4 before transplanting measured 12 weeks after treatment (reference value: 9 plants/m2)
Boerhavia erecta [8] = experiment: Pre-emergence herbicidal activity against Boerhavia erecta in tomato field assessed as number of weeds at 4.56 kg/ha applied through drip lines/backpack-spray on week 3 to 4 before transplanting measured 12 weeks after treatment (reference value: 9 plants/m2)
Corynandra viscosa [9] = experiment: Pre-emergence herbicidal activity against Cleome viscosa in tomato field assessed as number of weeds at 4.56 kg/ha applied through drip lines/backpack-spray on week 3 to 4 before transplanting measured 12 weeks after treatment (reference value: 9 plants/m2)
Portulaca oleracea [10] = experiment: Pre-emergence herbicidal activity against Portulaca oleracea in tomato field assessed as number of weeds at 4.56 kg/ha applied through drip lines/backpack-spray on week 3 to 4 before transplanting measured 12 weeks after treatment (reference value: 9 plants/m2)
Trianthema [11] = experiment: Pre-emergence herbicidal activity against Trianthema spp. in tomato field assessed as number of weeds at 4.56 kg/ha applied through drip lines/backpack-spray on week 3 to 4 before transplanting measured 12 weeks after treatment (reference value: 9 plants/m2)
Cyperus [12] = experiment: Pre-emergence herbicidal activity against Cyperus in tomato field assessed as number of weeds at 4.56 kg/ha applied through drip lines/backpack-spray on week 3 to 4 before transplanting measured 12 weeks after treatment (reference value: 5 plants/m2)
Poaceae [13] = experiment: Pre-emergence herbicidal activity against Poaceae (grass family) in tomato field assessed as number of weeds at 4.56 kg/ha applied through drip lines/backpack-spray on week 3 to 4 before transplanting measured 12 weeks after treatment (reference value: 8 plants/m2)
Boerhavia erecta [14] = experiment: Pre-emergence herbicidal activity against Boerhavia erecta in tomato field assessed as number of extra-large fruits at 4.56 kg/ha applied through drip lines/backpack-spray on week 3 to 4 before transplanting (reference value: 21.3 x 10 '3 ha); conditions: pooled result: one value given for 8 cell lines, strains, targets or settings
Eleusine indica [15] = experiment: Pre-emergence herbicidal activity against Eleusine indica in tomato field assessed as total number of fruits at 4.56 kg/ha applied through drip lines/backpack-spray on week 3 to 4 before transplanting (reference value: 49.5 x 10 '3 ha); conditions: pooled result: one value given for 8 cell lines, strains, targets or settings
Eleusine indica [16] = experiment: Pre-emergence herbicidal activity against Eleusine indica in tomato field assessed as total fruit weight at 4.56 kg/ha applied through drip lines/backpack-spray on week 3 to 4 before transplanting (reference value: 13.7 t/ha); conditions: pooled result: one value given for 8 cell lines, strains, targets or settings
Eleusine indica [17] = experiment: Pre-emergence herbicidal activity against Eleusine indica in tomato field assessed as extra-large fruit weight at 4.56 kg/ha applied through drip lines/backpack-spray on week 3 to 4 before transplanting (reference value: 7.3 t/ha); conditions: pooled result: one value given for 8 cell lines, strains, targets or settings
Digitaria [18] = experiment: Pre-emergence herbicidal activity against Digitaria spp. in tomato field assessed as number of weeds at 0.80 kg/ha applied through drip lines/backpack-spray on week 3 to 4 before transplanting measured 12 weeks after treatment (reference value: 9 plants/m2)
Echinochloa colona [19] = experiment: Pre-emergence herbicidal activity against Echinochloa colona in tomato field assessed as number of weeds at 0.80 kg/ha applied through drip lines/backpack-spray on week 3 to 4 before transplanting measured 12 weeks after treatment (reference value: 9 plants/m2)
Amaranthus dubius [20] = experiment: Pre-emergence herbicidal activity against Amaranthus dubius in tomato field assessed as number of weeds at 0.80 kg/ha applied through drip lines/backpack-spray on week 3 to 4 before transplanting measured 12 weeks after treatment (reference value: 9 plants/m2)
Boerhavia erecta [21] = experiment: Pre-emergence herbicidal activity against Boerhavia erecta in tomato field assessed as number of weeds at 0.80 kg/ha applied through drip lines/backpack-spray on week 3 to 4 before transplanting measured 12 weeks after treatment (reference value: 9 plants/m2)
Boerhavia erecta [22] = experiment: Pre-emergence herbicidal activity against Boerhavia erecta in tomato field assessed as number of weeds at 0.80 kg/ha applied through drip lines/backpack-spray on week 3 to 4 before transplanting measured 7 weeks after treatment (reference value: 9 plants/m2)
Corynandra viscosa [23] = experiment: Pre-emergence herbicidal activity against Cleome viscosa in tomato field assessed as number of weeds at 0.80 kg/ha applied through drip lines/backpack-spray on week 3 to 4 before transplanting measured 7 weeks after treatment (reference value: 9 plants/m2)
Portulaca oleracea [24] = experiment: Pre-emergence herbicidal activity against Portulaca oleracea in tomato field assessed as number of weeds at 0.80 kg/ha applied through drip lines/backpack-spray on week 3 to 4 before transplanting measured 7 weeks after treatment (reference value: 9 plants/m2)
Trianthema [25] = experiment: Pre-emergence herbicidal activity against Trianthema spp. in tomato field assessed as number of weeds at 0.80 kg/ha applied through drip lines/backpack-spray on week 3 to 4 before transplanting measured 7 weeks after treatment (reference value: 9 plants/m2)
Cyperus [26] = experiment: Pre-emergence herbicidal activity against Cyperus in tomato field assessed as number of weeds at 0.80 kg/ha applied through drip lines/backpack-spray on week 3 to 4 before transplanting measured 7 weeks after treatment (reference value: 3 plants/m2)
Poaceae [27] = experiment: Pre-emergence herbicidal activity against Poaceae (grass family) in tomato field assessed as number of weeds at 0.80 kg/ha applied through drip lines/backpack-spray on week 3 to 4 before transplanting measured 7 weeks after treatment (reference value: 6 plants/m2)
Corynandra viscosa [28] = experiment: Pre-emergence herbicidal activity against Cleome viscosa in tomato field assessed as number of weeds at 0.80 kg/ha applied through drip lines/backpack-spray on week 3 to 4 before transplanting measured 12 weeks after treatment (reference value: 9 plants/m2)
Portulaca oleracea [29] = experiment: Pre-emergence herbicidal activity against Portulaca oleracea in tomato field assessed as number of weeds at 0.80 kg/ha applied through drip lines/backpack-spray on week 3 to 4 before transplanting measured 12 weeks after treatment (reference value: 9 plants/m2)
Trianthema [30] = experiment: Pre-emergence herbicidal activity against Trianthema spp. in tomato field assessed as number of weeds at 0.80 kg/ha applied through drip lines/backpack-spray on week 3 to 4 before transplanting measured 12 weeks after treatment (reference value: 9 plants/m2)
Cyperus [31] = experiment: Pre-emergence herbicidal activity against Cyperus in tomato field assessed as number of weeds at 0.80 kg/ha applied through drip lines/backpack-spray on week 3 to 4 before transplanting measured 12 weeks after treatment (reference value: 5 plants/m2)
Poaceae [32] = experiment: Pre-emergence herbicidal activity against Poaceae (grass family) in tomato field assessed as number of weeds at 0.80 kg/ha applied through drip lines/backpack-spray on week 3 to 4 before transplanting measured 12 weeks after treatment (reference value: 8 plants/m2)
Eleusine indica [33] = experiment: Pre-emergence herbicidal activity against Eleusine indica in tomato field assessed as number of weeds at 0.80 kg/ha applied through drip lines/backpack-spray on week 3 to 4 before transplanting measured 7 weeks after treatment (reference value: 9 plants/m2)
Digitaria [34] = experiment: Pre-emergence herbicidal activity against Digitaria spp. in tomato field assessed as number of weeds at 0.80 kg/ha applied through drip lines/backpack-spray on week 3 to 4 before transplanting measured 7 weeks after treatment (reference value: 9 plants/m2)
Echinochloa colona [35] = experiment: Pre-emergence herbicidal activity against Echinochloa colona in tomato field assessed as number of weeds at 0.80 kg/ha applied through drip lines/backpack-spray on week 3 to 4 before transplanting measured 7 weeks after treatment (reference value: 9 plants/m2)
Amaranthus dubius [36] = experiment: Pre-emergence herbicidal activity against Amaranthus dubius in tomato field assessed as number of weeds at 0.80 kg/ha applied through drip lines/backpack-spray on week 3 to 4 before transplanting measured 7 weeks after treatment (reference value: 9 plants/m2)
Eleusine indica [37] = experiment: Pre-emergence herbicidal activity against Eleusine indica in tomato field assessed as total fruit weight at 0.80 kg/ha applied through drip lines/backpack-spray on week 3 to 4 before transplanting (reference value: 13.7 t/ha); conditions: pooled result: one value given for 8 cell lines, strains, targets or settings
Eleusine indica [38] = experiment: Pre-emergence herbicidal activity against Eleusine indica in tomato field assessed as number of weeds at 0.80 kg/ha applied through drip lines/backpack-spray on week 3 to 4 before transplanting measured 12 weeks after treatment (reference value: 9 plants/m2)
Eleusine indica [39] = experiment: Pre-emergence herbicidal activity against Eleusine indica in tomato field assessed as extra-large fruit weight at 0.80 kg/ha applied through drip lines/backpack-spray on week 3 to 4 before transplanting (reference value: 7.3 t/ha)
Digitaria [40] = experiment: Pre-emergence herbicidal activity against Digitaria spp. in tomato field assessed as extra-large fruit weight at 0.80 kg/ha applied through drip lines/backpack-spray on week 3 to 4 before transplanting (reference value: 7.3 t/ha)
Echinochloa colona [41] = experiment: Pre-emergence herbicidal activity against Echinochloa colona in tomato field assessed as extra-large fruit weight at 0.80 kg/ha applied through drip lines/backpack-spray on week 3 to 4 before transplanting (reference value: 7.3 t/ha)
Amaranthus dubius [42] = experiment: Pre-emergence herbicidal activity against Amaranthus dubius in tomato field assessed as extra-large fruit weight at 0.80 kg/ha applied through drip lines/backpack-spray on week 3 to 4 before transplanting (reference value: 7.3 t/ha)
Trianthema [43] = experiment: Pre-emergence herbicidal activity against Trianthema spp. in tomato field assessed as extra-large fruit weight at 0.80 kg/ha applied through drip lines/backpack-spray on week 3 to 4 before transplanting (reference value: 7.3 t/ha)
Eleusine indica [44] = experiment: Pre-emergence herbicidal activity against Eleusine indica in tomato field assessed as total number of fruits at 0.80 kg/ha applied through drip lines/backpack-spray on week 3 to 4 before transplanting (reference value: 49.5 x 10 '3 ha); conditions: pooled result: one value given for 8 cell lines, strains, targets or settings
Eleusine indica [45] = experiment: Pre-emergence herbicidal activity against Eleusine indica in tomato field assessed as number of extra-large fruits at 0.80 kg/ha applied through drip lines/backpack-spray on week 3 to 4 before transplanting (reference value: 21.3 x 10 '3 ha); conditions: pooled result: one value given for 8 cell lines, strains, targets or settings
Boerhavia erecta [46] = experiment: Pre-emergence herbicidal activity against Boerhavia erecta in tomato field assessed as extra-large fruit weight at 0.80 kg/ha applied through drip lines/backpack-spray on week 3 to 4 before transplanting (reference value: 7.3 t/ha)
Corynandra viscosa [47] = experiment: Pre-emergence herbicidal activity against Cleome viscosa in tomato field assessed as extra-large fruit weight at 0.80 kg/ha applied through drip lines/backpack-spray on week 3 to 4 before transplanting (reference value: 7.3 t/ha)
Portulaca oleracea [48] = experiment: Pre-emergence herbicidal activity against Portulaca oleracea in tomato field assessed as extra-large fruit weight at 0.80 kg/ha applied through drip lines/backpack-spray on week 3 to 4 before transplanting (reference value: 7.3 t/ha)

CCCCN(CC)C(=O)SCCC [PEBULATE]
Activity (Cyperus [1]): 4 /m2 | Activity (Poaceae [2]): 4 /m2 | Activity (Eleusine indica [3]): 8 /m2 | Activity (Digitaria [4]): 8 /m2 | Activity (Echinochloa colona [5]): 8 /m2 | Activity (Portulaca oleracea [6]): 14 /m2 | Activity (Amaranthus dubius [7]): 8 /m2 | Activity (Boerhavia erecta [8]): 8 /m2 | Activity (Corynandra viscosa [9]): 8 /m2 | Activity (Portulaca oleracea [10]): 8 /m2 | Activity (Trianthema [11]): 8 /m2 | Activity (Cyperus [12]): 6 /m2 | Activity (Poaceae [13]): 5 /m2 | fruit count (Boerhavia erecta [14]): 24.5 10³ fruits/ha | fruit number (Eleusine indica [15]): 55 10^3 fruits/ha | Activity (Eleusine indica [16]): 15.3 tons/ha | Activity (Eleusine indica [17]): 8.4 tons/ha

CCCN(CCC)c1c([N+](=O)[O-])cc(C(F)(F)F)cc1[N+](=O)[O-] [TRIFLURALIN]
Activity (Digitaria [18]): 7 /m2 | Activity (Echinochloa colona [19]): 7 /m2 | Activity (Amaranthus dubius [20]): 7 /m2 | Activity (Boerhavia erecta [21]): 7 /m2 | Activity (Boerhavia erecta [22]): 10 /m2 | Activity (Corynandra viscosa [23]): 10 /m2 | Activity (Portulaca oleracea [24]): 10 /m2 | Activity (Trianthema [25]): 10 /m2 | Activity (Cyperus [26]): 5 /m2 | Activity (Poaceae [27]): 6 /m2 | Activity (Corynandra viscosa [28]): 7 /m2 | Activity (Portulaca oleracea [29]): 7 /m2 | Activity (Trianthema [30]): 7 /m2 | Activity (Cyperus [31]): 8 /m2 | Activity (Poaceae [32]): 5 /m2 | Activity (Eleusine indica [33]): 10 /m2 | Activity (Digitaria [34]): 10 /m2 | Activity (Echinochloa colona [35]): 10 /m2 | Activity (Amaranthus dubius [36]): 10 /m2 | Activity (Eleusine indica [37]): 15.9 tons/ha | Activity (Eleusine indica [38]): 7 /m2 | Activity (Eleusine indica [39]): 9.6 tons/ha | Activity (Digitaria [40]): 9.6 tons/ha | Activity (Echinochloa colona [41]): 9.6 tons/ha | Activity (Amaranthus dubius [42]): 9.6 tons/ha | Activity (Trianthema [43]): 9.6 tons/ha | fruit number (Eleusine indica [44]): 59.5 10^3 fruits/ha | fruit count (Eleusine indica [45]): 29.5 10^3 fruits/ha | Activity (Boerhavia erecta [46]): 9.6 tons/ha | Activity (Corynandra viscosa [47]): 9.6 tons/ha | Activity (Portulaca oleracea [48]): 9.6 tons/ha
